Here are results for 3 molecules from patent publication US6767902B2, “Androgen as a male contraceptive and non-contraceptive androgen replacement” (The Population Council, Inc., priority 1997, dated 2004).

Structures are written as SMILES.

For data set [1], the system named is serum levels of LH, FSH, T and DHT. Description: MENT Ac subcutaneous implants in healthy men for 28 days: serum hormone levels. The class given is in vivo, human. How it is done:
(§1) Forty-five healthy, normal male subjects were selected for a study of the contraceptive effect of androgens alone. Subjects were treated over the course of four weeks, during which extensive blood work-ups were undertaken. The subjects were divided into three groups of 15 each. Group A received one subcutaneous implant, Group B received two subcutaneous implants and Group C received four subcutaneous implants. Implants remained in place for 28 consecutive days.
(§2) The total duration of the study was 42 days. Each man included in the study was assessed through a medical history and a complete general physical examination and a determination of general eligibility. Subjects were tested on a weekly basis for six consecutive weeks at approximately the same time each day. Day 1 was the date of the subdermal implant's insertion and Day 29 was removal. On the last day of the study, Day 43, subjects received a general physical examination, as well as an additional battery of blood tests. Blood samples for hormone immuno assays MENT (7 mL), FSH, LH and testosterone (5 mL for the last 3 hormones together) were obtained during pre-admission and each subsequent visit.
FIG. 2 illustrates the effect of MENT Ac implants on mean serum LH concentration. […] By suppressing LH, testosterone production is suppressed. […] A reduction in testosterone reduces or eliminates spermatogenesis. However, because androgen is being supplied, sexual function is generally maintained.
Finally, FIG. 3 illustrates the effect of MENT Ac implants on the mean serum FSH concentration. […] FSH stimulates germ cell production. If germ cells are present, but testosterone is insufficient, then spermatogenesis cannot take place and sperm cells will not be produced. Similarly, if FSH concentrations are low enough, germ cells will not be produced and spermatogenesis cannot take place irrespective of testosterone levels.

The nature of data set [2]: MENT Ac subcutaneous implants in healthy men: serum MENT levels and in vivo release. Also noted: species or system human. How it is done: as §1, §2
For data set [3], the system named is prostate. The following applies: in the potency ranges contemplated; cited from earlier work.
Data set [4] relates to serum levels of LH, FSH and T. The data set is described as follows: Multiple-dose daily i.m. injection of MENT in normal men for six days: serum hormone levels. The class given is in vivo, human. How it is done:
Two multiple injection studies were undertaken in which groups of four normal, non-sterile men each received 1, 2 or 4 mg of MENT daily by intramuscular (i.m.) injection for six consecutive days (24 men, 12 in each study). The formulation in each injection included the appropriate amount of MENT suspended in 27.6 mg/mL of polyethylene glycol, 1.8 mg/mL of Tween 80 and 8.3 mg/mL of sodium chloride. Serum FSH, LH and testosterone levels were measured daily. The results are illustrated in FIGS. 7-12.
The values returned to the normal range by day 15-30 of the study period. With reference to FIG. 8 (open boxes connected by a line=1 mg, closed boxes connected by a line=2 mg, open circles connected by a line=4 mg) a dose of at least 4 mg was required to obtain serum levels of FSH below two international units (“IU”) per liter by day 6. This must be compared with the results obtained by the use of 1000 μg (1 mg) of the same androgen delivered by a subcutaneous implant as illustrated in FIGS. 2-4 and Example 1. Therefore, considerably more of this same androgen was required to obtain certain depressed serum levels of LH, FSH and testosterone in males when the androgen was administered through a once-a-day intramuscular injection when compared to continuous release implants. […] FIG. 7 illustrates the level of serum LH achieved in the first study and FIG. 9 illustrates the level of serum testosterone achieved. FIGS. 10-12 illustrate the levels of LH, FSH and testosterone realized by the same protocol at the second testing site. Both the data and the overall trends of both studies are largely the same.

The mark [5] stands for this setting: single implant, about 500 micrograms MENT Ac per day, about 28 days.
[6] abbreviates: two implants simultaneously, about 1,000 micrograms MENT Ac per day.

As to `CC(=O)O[C@H]1CC[C@H]2[C@H]3[C@H](CC[C@]12C)[C@H]1CCC(=O)C=C1C[C@H]3C` [MENT Ac], the “mean serum LH concentration” value in data set [1] (2 or 4 implants (500 micrograms each), day 8) is “nearly undetectable levels of LH”; in data set [1] (first post implant visit on day 8, one, two or four implants), “dropped significantly”. For the same molecule, in data set [1] (four 500 microgram per day implants simultaneously), the “levels of LH, FSH and testosterone” value is on record as “very comparable to those obtained at the 1000 microgram per day level”. In data set [1] (one, two or four implants), the “mean serum FSH concentration” value is reported as “significant impact on the serum FSH concentration”. Also, the “mean serum T concentration (testosterone)” value is “much reduced levels of testosterone” in data set [1] (single implant) and “very low testosterone levels” in data set [1] (two or four implants). In addition, the entries for the “daily blood levels of FSH (average)” value in data set [1] (setting [5]) and in data set [1] (setting [6]) were “above 2 IU/L” and “less than 0.5 IU/L”, respectively. Also, the figures for the “daily blood levels of LH (average)” value in data set [1] (setting [5]) and in data set [1] (setting [6]) were “below 2 IU/L” and “less than 0.5 IU/L”, respectively. Also, the results for the “daily blood levels of testosterone” value in data set [1] (setting [5]) and in data set [1] (setting [6]) were “about 5.0 nmol/liter” and “about 1.0 nmol/liter”, respectively. The release rate entry in data set [2] (4.4 cm implant, drug load 112±4 mg MENT Ac, based on an in vivo study) is recorded as “approximately 500 micrograms per implant per day”. Besides, the bioavailability from implants entry in data set [2] (certain subcutaneous implants, MENT Ac compared with MENT) is given as “superior in terms of bioavailability”. Besides, in data set [2] (in vivo), the “hydrolysis to MENT” value is “readily hydrolyzed to MENT”.
Regarding `C[C@]12CC[C@H]3[C@@H](CCC4=CC(=O)CC[C@@]43C)[C@@H]1CC[C@@H]2O` [testosterone, reference compound], the “stimulation of the prostate” value in data set [3] is reported as “can overstimulate the prostate”.
As for `C[C@@H]1CC2=CC(=O)CC[C@@H]2[C@H]2CC[C@]3(C)[C@@H](O)CC[C@H]3[C@@H]21` [MENT, 7α-methyl-19-nortestosterone], the “levels of the metabolite DHT” value in data set [1] (MENT Ac implants, FIG. 5) is “actually decreased”. In addition, the “result in terms of testosterone (contraceptive adequacy)” value in data set [4] (1 mg MENT by i.m. injection once a day) is “inadequate for contraceptive purposes”. The “contraceptive adequacy from serum testosterone (FIGS. 9 and 12)” value in data set [4] (4 mg MENT by once-a-day i.m. injection) is given as “sufficient to ensure that some level of effective contraception is obtained”. In addition, in data set [4] (1, 2 or 4 mg MENT daily i.m. for six days, both studies), the “serum gonadotropins and testosterone levels” value is given as “gradual decrease”. The “time at which serum gonadotropins and testosterone reached their lowest levels” value in data set [4] (1, 2 or 4 mg MENT daily i.m., end of treatment) is recorded as “six”. Besides, the “study day by which values returned to the normal range” value in data set [4] (after 1, 2 or 4 mg MENT daily i.m. for six days) was 15 to 30 days. The “dose required to obtain serum levels of FSH below two IU per liter by day 6” value in data set [4] (daily i.m. injection, first study, FIG. 8) is recorded as “at least 4 mg”. In addition, in data set [3], the “stimulation of the prostate” value is “stimulates the prostate to a much lower degree”.
